{
  "source": "patent US20250381165A1",
  "about": "“Method of Use for Benzofuran Compounds” (Tampa Bay Research Institute, Inc., priority 2024, published 2025)",
  "key": {"[1]": {"tested_on": "MHC class I H-2Kb on DC2.4", "assay": "MHC class I recovery after acid stripping of DC2.4", "assay_type": "cell-based, murine", "experimental": "To determine if BzFβ affects synthesis or cycling of the MHC class I molecules, the class I molecule/peptide complexes were stripped from the surface of DC2.4 cells using a citric acid buffer, then treated with 25 μg/mL BzFβ, 5 mM of the dipeptide GL, or 3 μg/mL BFA (see Example 4) as a negative control.\nAn acid wash to strip the cell surface of MHC class I was performed as described with modifications. (Montealegre, et al., Dissociation of β2-microglobulin determines the surface quality control of major histocompatibility complex class I molecules. FASEB. 2015 July; 29(7):2780-8). DC2.4 were incubated overnight at 37° C. at 1×10^5. Cells were washed for 2 min in acidic buffer [(pH 2.5) 465 mM Citric acid, 35 mM sodium citrate, in PBS with 1% v/v FBS] or neutral buffer [(pH 7.4) PBS with 1% v/v FBS]. Afterwards the pH was neutralized by the addition of cDMEM. The cells were washed with PBS and treated with BzFβ or GL in cDMEM for various times to allow for MHC class I recovery at 37° C. Cells were washed and stained with an H-2Kb-specific antibody (Invitrogen, cat. no. 12-5958-82) and analyzed by flow cytometry as described previously\nMHC I recovery on the cell surface at various time points was detected by flow cytometry using the PE-labeled MHC class I H-2Kb specific antibody (AF6-88.5.5.3). […] At 6 hours >60% of the MHC class I molecules recovered, seen in FIG. 14."}, "[2]": {"tested_on": "freshly isolated murine splenocytes", "assay": "CellTiter-Glo cell viability, primary splenocytes", "assay_type": "cell-based", "experimental": "(§1) BzFβ was then examined for its effect on the viability of several murine and human cell lines and primary murine splenocytes. The cytotoxicity of BzFβ was assessed using the CellTiter-Glo […] assay system according to manufacturer's instructions to determine BzFβ's effect on the viability of several murine and human cell lines and primary murine splenocytes.\nSix- to ten-week-old female C57BL/6NCrl mice (Charles River Laboratories, Wilmington, MA; cat. no. 027) were maintained in accord with the NIH Guide for the Care and Use of Laboratory Animals. Mice were maintained in an INOVIVE individually ventilated cage system with 3 mice per cage containing 100% virgin wood pulp bedding (Harlan Teklad™, Inotiv Inc., West Lafayette, IN; cat. no. 7099). Water and food (Harlan Teklad™, Inotiv Inc., West Lafayette, IN; cat. no. 8640) were available ad libitum. […] The cell count was determined using the MUSE cell viability kit (MCH600103) and MUSE Cell Analyzer (Luminex Corp, Austin TX). […]\n(§2) The cytotoxicity of BzFβ was assessed using the CellTiter-Glo cell […] viability assay system […] cat. no. […] CellTiter-Glo was added 1:1 in the media and the level of chemiluminescence was measured using luminescence at wavelengths of 200 nm to 700 nm through a photomultiplier on BioTek's Synergy HTX multimode microplate reader. […]"}, "RAW 264.7": {"tested_on": "RAW 264.7", "assay": "CellTiter-Glo cell viability, RAW 264.7", "assay_type": "cell-based, murine", "details": "Mus musculus, RAW264.7", "experimental": "as §1\n(§3) DC2.4 cell line (Dr. Kenneth Rock, University of Massachusetts), RAW 264.7 cell line (American Type Culture Collection (ATCC), Manassas, VA; TIB 71), and IMG cell line (Millipore™, Merck KGaA, Burlington, MA; cat. no. SC-C134) were each cultured in complete Dulbecco's Modified Eagle Medium (cDMEM) containing […] glucose (Gibco™, Thermo Fisher Scientific Inc., Waltham, MA; cat. no. 10566-016) and supplemented with GlutaMAX, 50 U/mL penicillin and 50 µg/mL streptomycin (Gibco™; cat. no. 15070-063) and 10% heat inactivated fetal bovine serum (FBS) (R&D Systems, Inc., Minneapolis, MN; cat. no. […]\nas §2"}, "IMG": {"tested_on": "IMG", "assay": "CellTiter-Glo cell viability, IMG", "assay_type": "cell-based, murine", "details": "Mus musculus", "experimental": "as §1, §3, §2"}, "DC2.4": {"tested_on": "DC2.4", "assay": "CellTiter-Glo cell viability, DC2.4", "assay_type": "cell-based, murine", "parameters": "effect on cell viability: unit of the concentration uncertain", "experimental": "as §1, §3, §2"}},
  "data": [
    {"molecule": "O=C(O)/C=C/c1ccc2occc2c1", "note": "[BzFβ, (2E)-3-(1-benzofuran-5-yl)prop-2-enoic acid]", "values": [
      {"measurement": "MHC class I recovery after acid stripping", "setting": "[1]; 25 μg/mL BzFβ or 5 mM GL during recovery, 4-24 h", "result": "did not show an increase in MHC class I recovery"},
      {"measurement": "B3Z response post acid-stripping", "setting": "[1]; treated during recovery, data not shown", "result": "still able to increase the B3Z response"},
      {"measurement": "IC50", "setting": "[2]; Mus musculus, Splenocyte, freshly isolated murine splenocytes, CellTiter-Glo", "result": 402, "unit": "µM"},
      {"measurement": "viability of primary murine splenocytes", "setting": "[2]; concentrations below 50 µg/mL", "result": "minimally affected"},
      {"measurement": "IC50", "setting": "RAW 264.7", "result": 783, "unit": "µM"},
      {"measurement": "IC50", "setting": "IMG", "result": 316, "unit": "µM"},
      {"measurement": "IC50", "setting": "DC2.4; Mus musculus, DC2.4, CellTiter-Glo", "result": 1150, "unit": "µM"},
      {"measurement": "effect on cell viability", "setting": "DC2.4; all the cell lines examined, except HEK293T, 24 h exposure, concentrations lower than 50 µg/mL (266 (unit uncertain))", "result": "small effects on cell viability"}
    ]}
  ]
}
